According to PubChem BioAssay AID1963430 (Molecular Pharmacology Branch, DTP, NCI, 2024):

Tested on: 521955-158-R2-J5-PDC complex spheroid growth, % test/control
Assay: Anticancer human tumor 521955-158-R2-J5-PDC patient-derived pancreatic carcinoma cell line growth inhibition [Asc]
Conditions: for IC50: curve of first compound; for viability, T/C: stronger effect = lower value; active = viability on the fitted dose curve at most 10% of control; inactive = the rest
How it was run: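 Tumor cells were grown as multicellular spheroids with stromal HUVEC and mesenchymal stem cells and treated singly or in combination. Concentrations fell in half-log steps from the clinical Cmax, or from 10 microM where none was known.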

[1] = second compound 0.1 µM, first compound 0.0316 µM
[2] = second compound 0.1 µM, first compound 0.1 µM
[3] = second compound 0.1 µM, first compound 0.316 µM
[4] = second compound 0.1 µM, first compound 1 µM
[5] = second compound 0.1 µM, first compound 3.16 µM
[6] = second compound 0.1 µM, first compound 10 µM
[7] = second compound 0.316 µM, first compound 0.0316 µM
[8] = second compound 0.316 µM, first compound 0.1 µM
[9] = second compound 0.316 µM, first compound 0.316 µM
[10] = second compound 0.316 µM, first compound 1 µM
[11] = second compound 0.316 µM, first compound 3.16 µM
[12] = second compound 0.316 µM, first compound 10 µM
[13] = second compound 1 µM, first compound 0.0316 µM
[14] = second compound 1 µM, first compound 0.1 µM
[15] = second compound 1 µM, first compound 0.316 µM
[16] = second compound 1 µM, first compound 1 µM
[17] = second compound 1 µM, first compound 3.16 µM
[18] = second compound 1 µM, first compound 10 µM
[19] = second compound 3.16 µM, first compound 0.0316 µM
[20] = second compound 3.16 µM, first compound 0.1 µM
[21] = second compound 3.16 µM, first compound 0.316 µM
[22] = second compound 3.16 µM, first compound 1 µM
[23] = second compound 3.16 µM, first compound 3.16 µM
[24] = second compound 3.16 µM, first compound 10 µM
[25] = second compound 10 µM, first compound 0.0316 µM
[26] = second compound 10 µM, first compound 0.1 µM
[27] = second compound 10 µM, first compound 0.316 µM
[28] = second compound 10 µM, first compound 1 µM
[29] = second compound 10 µM, first compound 3.16 µM
[30] = second compound 10 µM, first compound 10 µM
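Note: spheroids exposed to agents for 7 days before readout.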
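Throughout, for viability, T/C: 100% = DMSO vehicle control viability.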

C=CC(=O)N1CCN(c2nc(=O)n(-c3c(C)ccnc3C(C)C)c3nc(-c4c(O)cccc4F)c(F)cc23)C(C)C1 (stereo not given) + Cc1c(S(C)(=O)=O)c(-c2cc(F)cc(N3CCN(c4ccc(NS(=O)(=O)c5ccc(NC(CCN6CCC(C(=O)OCCCP(=O)(O)O)CC6)CSc6ccccc6)c(S(=O)(=O)C(F)(F)F)c5)cc4)CC3)c2)c(-c2ccc(Cl)cc2)n1C(C)C
inactive: viability, T/C [1] 77.7% | viability, T/C [2] 87.5% | viability, T/C [3] 64.9% | viability, T/C [4] 94.5% | viability, T/C [5] 107% | viability, T/C [6] 77.5% | viability, T/C [7] 80.6% | viability, T/C [8] 72.2% | viability, T/C [9] 84.8% | viability, T/C [10] 112% | viability, T/C [11] 111% | viability, T/C [12] 83.7% | viability, T/C [13] 69.5% | viability, T/C [14] 72.3% | viability, T/C [15] 85.8% | viability, T/C [16] 95.7% | viability, T/C [17] 71.8% | viability, T/C [18] 81.7% | viability, T/C [19] 73.7% | viability, T/C [20] 97.8% | viability, T/C [21] 83.5% | viability, T/C [22] 86.5% | viability, T/C [23] 103% | viability, T/C [24] 80.3% | viability, T/C [25] 151% | viability, T/C [26] 176% | viability, T/C [27] 167% | viability, T/C [28] 112% | viability, T/C [29] 123% | viability, T/C [30] 98.4%
> 10000 nM: IC50 (second compound 0.1 µM) | IC50 (second compound 0.316 µM) | IC50 (second compound 1 µM) | IC50 (second compound 3.16 µM) | IC50 (second compound 10 µM)

Cc1nc(N2CCC3(CC2)COC(C)C3N)c(CO)nc1Sc1ccnc(N)c1Cl (stereo not given) + Cc1c(S(C)(=O)=O)c(-c2cc(F)cc(N3CCN(c4ccc(NS(=O)(=O)c5ccc(NC(CCN6CCC(C(=O)OCCCP(=O)(O)O)CC6)CSc6ccccc6)c(S(=O)(=O)C(F)(F)F)c5)cc4)CC3)c2)c(-c2ccc(Cl)cc2)n1C(C)C
57.7 nM: IC50 (second compound 0.316 µM)
60.8 nM: IC50 (second compound 0.1 µM)
392 nM: IC50 (second compound 3.16 µM)
> 3000 nM: IC50 (second compound 10 µM)
inactive: viability, T/C (second compound 0.1 µM, first compound 0.00949 µM) 52.9% | viability, T/C (second compound 0.1 µM, first compound 0.03 µM) 55.8% | viability, T/C (second compound 0.1 µM, first compound 0.0949 µM) 45.8% | viability, T/C (second compound 0.1 µM, first compound 0.3 µM) 43.2% | viability, T/C (second compound 0.1 µM, first compound 0.949 µM) 34.9% | viability, T/C (second compound 0.1 µM, first compound 3 µM) 36.9% | viability, T/C (second compound 0.316 µM, first compound 0.00949 µM) 63.6% | viability, T/C (second compound 0.316 µM, first compound 0.03 µM) 65.8% | viability, T/C (second compound 0.316 µM, first compound 0.0949 µM) 38.9% | viability, T/C (second compound 0.316 µM, first compound 0.3 µM) 32.9% | viability, T/C (second compound 0.316 µM, first compound 0.949 µM) 30.4% | viability, T/C (second compound 0.316 µM, first compound 3 µM) 30.5% | viability, T/C (second compound 1 µM, first compound 0.00949 µM) 64.6% | viability, T/C (second compound 1 µM, first compound 0.03 µM) 69.4% | viability, T/C (second compound 1 µM, first compound 0.0949 µM) 48.2% | viability, T/C (second compound 1 µM, first compound 0.3 µM) 39.4% | viability, T/C (second compound 1 µM, first compound 0.949 µM) 44.4% | viability, T/C (second compound 1 µM, first compound 3 µM) 29.4% | viability, T/C (second compound 3.16 µM, first compound 0.00949 µM) 75.9% | viability, T/C (second compound 3.16 µM, first compound 0.03 µM) 64.7% | viability, T/C (second compound 3.16 µM, first compound 0.0949 µM) 61.2% | viability, T/C (second compound 3.16 µM, first compound 0.3 µM) 50.3% | viability, T/C (second compound 3.16 µM, first compound 0.949 µM) 43% | viability, T/C (second compound 3.16 µM, first compound 3 µM) 48.9% | viability, T/C (second compound 10 µM, first compound 0.00949 µM) 230% | viability, T/C (second compound 10 µM, first compound 0.03 µM) 221% | viability, T/C (second compound 10 µM, first compound 0.0949 µM) 179% | viability, T/C (second compound 10 µM, first compound 0.3 µM) 190% | viability, T/C (second compound 10 µM, first compound 0.949 µM) 179% | viability, T/C (second compound 10 µM, first compound 3 µM) 134%
142 nM: IC50 (second compound 1 µM)

C#Cc1c(F)ccc2cc(O)cc(-c3ncc4c(N5CC6CCC(C5)N6)nc(OCC56CCCN5CC(F)C6)nc4c3F)c12 (stereo not given) + Cc1c(S(C)(=O)=O)c(-c2cc(F)cc(N3CCN(c4ccc(NS(=O)(=O)c5ccc(NC(CCN6CCC(C(=O)OCCCP(=O)(O)O)CC6)CSc6ccccc6)c(S(=O)(=O)C(F)(F)F)c5)cc4)CC3)c2)c(-c2ccc(Cl)cc2)n1C(C)C
< 31.6 nM: IC50 (second compound 0.1 µM) | IC50 (second compound 0.316 µM) | IC50 (second compound 1 µM) | IC50 (second compound 3.16 µM)
inactive: viability, T/C [1] 44.7% | viability, T/C [2] 30.4% | viability, T/C [3] 38.7% | viability, T/C [4] 33.9% | viability, T/C [5] 38.5% | viability, T/C [6] 34% | viability, T/C [7] 43.6% | viability, T/C [8] 27.9% | viability, T/C [9] 33.3% | viability, T/C [10] 32.1% | viability, T/C [11] 32.5% | viability, T/C [12] 34.4% | viability, T/C [13] 31.3% | viability, T/C [14] 38.4% | viability, T/C [15] 39.3% | viability, T/C [16] 31.8% | viability, T/C [17] 28.8% | viability, T/C [18] 29.4% | viability, T/C [19] 42.2% | viability, T/C [20] 41.3% | viability, T/C [21] 34.7% | viability, T/C [22] 34.8% | viability, T/C [23] 35.9% | viability, T/C [24] 44.7% | viability, T/C [25] 174% | viability, T/C [26] 152% | viability, T/C [27] 155% | viability, T/C [28] 152% | viability, T/C [29] 113% | viability, T/C [30] 79.6%
> 10000 nM: IC50 (second compound 10 µM)

O=C(c1ccc(F)c(F)c1Nc1ccc(I)cc1F)N1CC(O)([C@@H]2CCCCN2)C1 + Cc1c(S(C)(=O)=O)c(-c2cc(F)cc(N3CCN(c4ccc(NS(=O)(=O)c5ccc(NC(CCN6CCC(C(=O)OCCCP(=O)(O)O)CC6)CSc6ccccc6)c(S(=O)(=O)C(F)(F)F)c5)cc4)CC3)c2)c(-c2ccc(Cl)cc2)n1C(C)C
21.3 nM: IC50 (second compound 0.316 µM)
32.2 nM: IC50 (second compound 1 µM)
inactive: viability, T/C (second compound 0.1 µM, first compound 0.00316 µM) 64% | viability, T/C (second compound 0.1 µM, first compound 0.01 µM) 60.4% | viability, T/C [1] 69.8% | viability, T/C [2] 45.5% | viability, T/C [3] 34.5% | viability, T/C [4] 19.9% | viability, T/C (second compound 0.316 µM, first compound 0.00316 µM) 66.9% | viability, T/C (second compound 0.316 µM, first compound 0.01 µM) 44.6% | viability, T/C [7] 56.5% | viability, T/C [8] 37.8% | viability, T/C [9] 23.2% | viability, T/C [10] 13% | viability, T/C (second compound 1 µM, first compound 0.00316 µM) 82% | viability, T/C (second compound 1 µM, first compound 0.01 µM) 64.6% | viability, T/C [13] 49.1% | viability, T/C [14] 37.6% | viability, T/C [15] 18.1% | viability, T/C (second compound 3.16 µM, first compound 0.00316 µM) 61.2% | viability, T/C (second compound 3.16 µM, first compound 0.01 µM) 75.1% | viability, T/C [19] 50.8% | viability, T/C [20] 31.6% | viability, T/C [21] 9.65% | viability, T/C (second compound 10 µM, first compound 0.00316 µM) 169% | viability, T/C (second compound 10 µM, first compound 0.01 µM) 242% | viability, T/C [25] 135% | viability, T/C [26] 36.1% | viability, T/C [27] 10.6% | viability, T/C [28] 2.76%
103 nM: IC50 (second compound 0.1 µM)
39.9 nM: IC50 (second compound 3.16 µM)
active: viability, T/C [16] 5.29% | viability, T/C [22] 5.32%
78.8 nM: IC50 (second compound 10 µM)
